Data: patent publication US10577308B2, “Sodium channel modulators” (The Florey Institute of Neuroscience and Mental Health, priority 2015, dated 2020)
Like-named read-outs stand apart in the source and are kept apart here.

Legend:
[1] = molecular target: hNav1.2 (Homo sapiens (Human), UniProt Q99250); test: Automated patch clamp (IonWorks Quattro) block of hNav1.2 channels in CHO cells; format: cell-based
Description: (§1) FIG. 1 depicts the voltage sequence used to measure inhibitory activity of compounds as described in Example 3. An automated patch clamp screening assay was used to measure the inhibitory effect (potency) of compounds in three conformational states of the sodium channel: (1) the tonic state (TP1); (2) the frequency-dependent (10 Hz) state (TP11) and (3) the inactivated state (TP12).
(§2) Test Protocol for Determining the Potency of Compounds on Nav1.2 and Nav1.6 Subtypes of Voltage-Gated Sodium Ion Channels Expressed in Mammalian Cells
(§3) Cell culture procedures: Chinese hamster ovary (CHO) cells were stably transfected with the cDNA sequence of either the human SCN2A or SCN8A genes to create hNav1.2 or hNav1.6 cells respectively. The cell lines were cultured in Ham's F-12 medium supplemented with 10% fetal bovine serum and antibiotics in a tissue incubator at 37° C. under a humidified air/CO2 mixture (95/5 v/v). On the day of the experiment, cells were washed twice with Hank's balanced salt solution, treated with trypsin, and resuspended in fresh culture media at a density of 4−6×10^6 cells in 20 ml. Immediately before placing in the IonWorks Quattro instrument, cells were washed in Hank's balanced salt solution to remove culture medium and re-suspended in 3 ml of Hank's balanced salt solution.
(§4) Automated patch clamp recordings of cells using the IonWorks Quattro Instrument: The assay used a 384 microwell plate, which enabled 20 compounds to be studied at four different concentrations in quadruplicate as well as allowing a vehicle control group and a positive control group using mexiletine at 8 different concentrations. Cells were added to the wells of the Population Patch Clamp planar electrode using a 48-channel pipettor in a volume of 6 μL, per well. After 5 minutes incubation at ambient temperature with compounds or vehicle, membrane currents were recorded using the patch clamp amplifier. The pulse pattern was repeated twice, before and after compound addition and peak current amplitudes were measured at three test pulses, TP1, TP11 and TP12 to measure Tonic Block, 10 Hz Frequency-dependent Block and Inactivation State Block, respectively.
(§5) Data analysis: Data acquisition and analyses were carried out using the IonWorks Quattro system operation software which uses an algorithm to correct data for leak currents. Concentration-response curves were fitted by non-linear least squares regression allowing calculation of an IC50 value (μM), being the concentration of the compound producing half-maximal inhibition.

[2] = molecular target: hNav1.6 (Homo sapiens (Human), UniProt Q9UQD0); test: Automated patch clamp (IonWorks Quattro) block of hNav1.6 channels in CHO cells; format: cell-based
hNav1.6, sequence (Q9UQD0 whole entry): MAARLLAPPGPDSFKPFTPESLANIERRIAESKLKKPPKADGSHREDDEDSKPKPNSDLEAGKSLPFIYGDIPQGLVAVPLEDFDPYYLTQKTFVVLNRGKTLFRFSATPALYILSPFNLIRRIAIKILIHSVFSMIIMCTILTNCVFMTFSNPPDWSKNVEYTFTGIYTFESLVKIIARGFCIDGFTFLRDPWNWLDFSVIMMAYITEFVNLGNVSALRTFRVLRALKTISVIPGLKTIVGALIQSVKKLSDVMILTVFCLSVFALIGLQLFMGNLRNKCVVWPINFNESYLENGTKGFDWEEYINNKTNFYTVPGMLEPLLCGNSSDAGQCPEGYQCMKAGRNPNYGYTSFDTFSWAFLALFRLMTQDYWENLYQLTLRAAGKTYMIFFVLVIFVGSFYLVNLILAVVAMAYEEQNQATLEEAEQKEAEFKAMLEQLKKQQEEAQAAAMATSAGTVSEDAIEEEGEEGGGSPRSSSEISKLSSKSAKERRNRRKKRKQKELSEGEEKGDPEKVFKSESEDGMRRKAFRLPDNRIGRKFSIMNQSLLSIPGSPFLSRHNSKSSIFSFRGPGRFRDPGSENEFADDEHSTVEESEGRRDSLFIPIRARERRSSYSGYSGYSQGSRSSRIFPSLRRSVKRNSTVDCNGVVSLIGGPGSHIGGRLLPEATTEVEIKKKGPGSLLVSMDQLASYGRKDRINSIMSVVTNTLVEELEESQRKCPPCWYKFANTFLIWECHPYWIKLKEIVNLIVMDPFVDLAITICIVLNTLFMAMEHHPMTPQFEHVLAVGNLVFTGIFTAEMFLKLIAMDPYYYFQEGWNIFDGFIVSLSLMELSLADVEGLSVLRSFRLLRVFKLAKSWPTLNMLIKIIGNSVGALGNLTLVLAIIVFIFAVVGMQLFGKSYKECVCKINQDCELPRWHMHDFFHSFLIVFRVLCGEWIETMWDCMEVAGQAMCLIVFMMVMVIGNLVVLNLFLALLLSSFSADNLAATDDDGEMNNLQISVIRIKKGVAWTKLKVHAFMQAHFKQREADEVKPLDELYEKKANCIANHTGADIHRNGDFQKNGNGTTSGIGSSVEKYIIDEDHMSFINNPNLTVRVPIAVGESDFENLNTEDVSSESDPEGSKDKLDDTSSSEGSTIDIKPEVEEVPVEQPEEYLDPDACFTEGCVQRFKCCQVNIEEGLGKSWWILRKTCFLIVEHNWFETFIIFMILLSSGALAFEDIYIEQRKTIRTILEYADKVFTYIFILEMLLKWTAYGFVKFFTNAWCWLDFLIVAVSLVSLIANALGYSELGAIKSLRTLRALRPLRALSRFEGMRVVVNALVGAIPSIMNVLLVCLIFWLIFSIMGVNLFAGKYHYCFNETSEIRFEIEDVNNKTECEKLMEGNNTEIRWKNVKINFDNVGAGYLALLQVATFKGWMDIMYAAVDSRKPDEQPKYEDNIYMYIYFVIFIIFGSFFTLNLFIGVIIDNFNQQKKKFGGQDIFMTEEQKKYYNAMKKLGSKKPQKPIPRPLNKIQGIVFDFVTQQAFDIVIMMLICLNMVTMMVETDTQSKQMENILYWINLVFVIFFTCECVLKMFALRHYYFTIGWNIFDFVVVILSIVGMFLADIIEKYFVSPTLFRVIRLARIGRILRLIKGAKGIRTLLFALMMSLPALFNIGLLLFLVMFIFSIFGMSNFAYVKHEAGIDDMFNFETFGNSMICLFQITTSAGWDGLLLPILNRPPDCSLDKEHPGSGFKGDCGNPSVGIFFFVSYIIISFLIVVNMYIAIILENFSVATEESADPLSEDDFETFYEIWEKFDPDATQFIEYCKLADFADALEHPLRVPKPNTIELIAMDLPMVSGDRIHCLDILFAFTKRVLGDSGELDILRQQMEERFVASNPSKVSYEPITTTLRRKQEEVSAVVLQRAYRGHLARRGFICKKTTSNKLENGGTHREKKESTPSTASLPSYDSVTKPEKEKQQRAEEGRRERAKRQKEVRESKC
Description: as §1, §2, §3, §4, §5

[3] = 10 Hz frequency-dependent block (TP11), read-out: IC50 Nav1.2 10 Hz block
[4] = Inactivated state block (TP12), read-out: IC50 Nav1.2 Inactivated state block
[5] = Tonic block (TP1), read-out: IC50 Nav1.2 Tonic block
[6] = 10 Hz frequency-dependent block (TP11), read-out: IC50 Nav1.6 10 Hz block
[7] = Inactivated state block (TP12), read-out: IC50 Nav1.6 Inactivated state block
[8] = Tonic block (TP1), read-out: IC50 Nav1.6 Tonic block

hNav1.2, sequence (Q99250 whole entry): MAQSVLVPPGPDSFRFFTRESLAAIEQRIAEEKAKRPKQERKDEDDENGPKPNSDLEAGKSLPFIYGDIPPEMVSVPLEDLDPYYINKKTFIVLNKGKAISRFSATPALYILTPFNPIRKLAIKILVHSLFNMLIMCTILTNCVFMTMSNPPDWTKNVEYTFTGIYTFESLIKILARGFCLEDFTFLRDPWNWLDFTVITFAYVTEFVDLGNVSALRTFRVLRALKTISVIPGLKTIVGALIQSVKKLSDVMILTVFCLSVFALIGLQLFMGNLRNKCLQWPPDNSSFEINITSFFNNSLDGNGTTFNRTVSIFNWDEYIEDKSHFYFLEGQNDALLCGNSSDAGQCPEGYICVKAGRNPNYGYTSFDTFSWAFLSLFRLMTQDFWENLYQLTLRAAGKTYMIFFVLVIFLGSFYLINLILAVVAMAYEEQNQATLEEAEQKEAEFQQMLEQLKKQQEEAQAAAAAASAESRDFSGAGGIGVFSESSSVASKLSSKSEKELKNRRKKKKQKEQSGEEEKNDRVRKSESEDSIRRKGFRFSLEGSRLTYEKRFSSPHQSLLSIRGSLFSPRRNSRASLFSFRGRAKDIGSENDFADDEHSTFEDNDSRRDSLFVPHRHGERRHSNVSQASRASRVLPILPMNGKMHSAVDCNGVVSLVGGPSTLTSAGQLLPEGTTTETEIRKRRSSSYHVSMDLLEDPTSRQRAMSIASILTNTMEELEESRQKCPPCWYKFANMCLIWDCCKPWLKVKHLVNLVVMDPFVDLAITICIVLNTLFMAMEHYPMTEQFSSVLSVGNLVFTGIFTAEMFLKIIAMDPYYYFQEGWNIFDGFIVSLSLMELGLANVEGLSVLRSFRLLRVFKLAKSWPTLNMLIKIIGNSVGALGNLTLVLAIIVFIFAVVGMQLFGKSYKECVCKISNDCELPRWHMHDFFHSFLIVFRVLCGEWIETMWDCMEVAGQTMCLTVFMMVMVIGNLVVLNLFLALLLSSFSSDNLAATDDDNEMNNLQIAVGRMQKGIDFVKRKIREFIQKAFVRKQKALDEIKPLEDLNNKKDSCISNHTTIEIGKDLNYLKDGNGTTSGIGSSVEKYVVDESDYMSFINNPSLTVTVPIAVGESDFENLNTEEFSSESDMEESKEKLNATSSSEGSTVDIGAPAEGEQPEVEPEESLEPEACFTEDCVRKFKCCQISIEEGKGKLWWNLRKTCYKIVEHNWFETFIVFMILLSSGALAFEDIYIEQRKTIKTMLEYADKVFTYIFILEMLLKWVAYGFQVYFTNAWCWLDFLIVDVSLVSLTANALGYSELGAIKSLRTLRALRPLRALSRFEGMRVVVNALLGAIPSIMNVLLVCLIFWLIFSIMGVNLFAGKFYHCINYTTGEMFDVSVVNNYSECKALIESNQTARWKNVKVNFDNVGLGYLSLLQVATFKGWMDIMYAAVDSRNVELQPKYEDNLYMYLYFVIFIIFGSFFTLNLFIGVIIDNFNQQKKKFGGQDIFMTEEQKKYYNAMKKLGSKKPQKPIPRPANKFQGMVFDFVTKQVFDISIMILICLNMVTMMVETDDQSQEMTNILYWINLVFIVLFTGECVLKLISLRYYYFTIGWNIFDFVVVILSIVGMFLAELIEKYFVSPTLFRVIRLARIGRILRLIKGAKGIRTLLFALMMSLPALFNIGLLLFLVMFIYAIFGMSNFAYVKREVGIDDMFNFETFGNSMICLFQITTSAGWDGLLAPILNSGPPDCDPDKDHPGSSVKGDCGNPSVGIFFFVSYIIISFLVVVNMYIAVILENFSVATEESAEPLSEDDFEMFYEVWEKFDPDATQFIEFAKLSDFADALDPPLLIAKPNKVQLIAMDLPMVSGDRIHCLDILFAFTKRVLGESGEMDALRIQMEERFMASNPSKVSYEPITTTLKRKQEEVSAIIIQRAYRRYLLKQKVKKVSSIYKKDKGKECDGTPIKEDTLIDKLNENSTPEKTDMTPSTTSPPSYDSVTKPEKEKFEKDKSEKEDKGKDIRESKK

Compound	IC50 [1, 3] [µM]	IC50 [1, 4] [µM]	IC50 [1, 5] [µM]	IC50 [2, 6] [µM]	IC50 [2, 7] [µM]	IC50 [2, 8] [µM]
Cc1cccc(C)c1OCCCNCc1ccc(-c2ccccc2)cc1 [Compound 522, N-(Biphenyl-4-ylmethyl)-3-(2,6-dimethylphenoxy)propan-1-amine]	> 1000	> 1000	> 1000	> 1000	> 1000	> 1000
Cc1cccc(C)c1OCCCNCc1ccccn1 [Compound 523, 3-(2,6-Dimethylphenoxy)-N-(pyridin-2-ylmethyl)propan-1-amine]	~10	4.2	> 10	7.6	2	> 10
Cc1nn(C)c(C)c1OCCCNCc1cccc(-c2cncnc2)c1 [Compound 645, N-(3-(Pyrimidin-5-yl)benzyl)-3-(1,3,5-trimethyl-1H-pyrazol-4-yloxy)propan-1-amine]	> 10	> 10	> 10	> 10	> 10	> 10
Cc1cccc(C)c1OCCCNCc1ccc(C(F)(F)F)cc1 [Compound 526]	9.5	3.5	> 10	4.7	2.3	6.9
Cc1cccc(C)c1OCCCNCc1ccc(S(N)(=O)=O)cc1 [Compound 532, 4-((3-(2,6-Dimethylphenoxy)propylamino)methyl)benzenesulfonamide]	> 10	6.1	> 10	> 10	8.5	> 10
Cc1nn(C)c(C)c1OCCCNC(c1ccccn1)c1ccccn1 [Compound 644, N-(Dipyridin-2-ylmethyl)-3-(1,3,5-trimethyl-1H-pyrazol-4-yloxy)propan-1-amine]	> 10	> 10	> 10	> 10	> 10	> 10
CC(=O)Nc1ccc(CNCCCOc2c(C)cccc2C)cc1 [Compound 542, N-(4-((3-(2,6-Dimethylphenoxy)propylamino)methyl)phenyl)acetamide]	> 10	5	> 10	> 10	7.1	> 10
Cc1cccc(C)c1OCCCNCc1ccc(C#N)cc1 [Compound 519, 4-((3-(2,6-Dimethylphenoxy)propylamino)methyl)benzonitrile]	8.3	2.1	> 10	3.4	1.8	5.6
Cc1n[nH]c(C)c1OCCCNCc1cccc(-c2cncnc2)c1 [Compound 643, 3-(3,5-Dimethyl-1H-pyrazol-4-yloxy)-N-(3-(pyrimidin-5-yl)benzyl)propan-1-amine]	> 10	> 10	> 10	> 10	> 10	> 10
Cc1cccc(C)c1OCCCNCc1cc(Cl)c(O)c(Cl)c1 [Compound 504, 2,6-Dichloro-4-((3-(2,6-dimethylphenoxy)propylamino)methyl)phenol]	> 10	4.4	> 10	> 10	> 10	> 10
Cc1cccc(C)c1OCCCNCc1cccc(-c2ccccc2)c1 [Compound 535, N-(Biphenyl-3-ylmethyl)-3-(2,6-dimethylphenoxy)propan-1-amine]	20.7	7	66.5	> 1000	> 1000	> 1000

The next lines start with the values.

IC50 [1, 3] [µM]	IC50 [1, 4] [µM]	IC50 [1, 5] [µM]	IC50 [2, 6] [µM]	IC50 [2, 7] [µM]	IC50 [2, 8] [µM]	Compound
2.9	1.1	7.8	1.7	0.8	2.9	COc1ccccc1CNCCCOc1c(C)cccc1C [Compound 530, 3-(2,6-Dimethylphenoxy)-N-(2-methoxybenzyl)propan-1-amine]
4.5	2.1	> 30	> 30	8	> 30	Cc1cccc(C)c1OCCCNCc1cccc(-c2ccccc2F)c1 [Compound 556, 3-(2,6-Dimethylphenoxy)-N-((2′-fluorobiphenyl-3-yl)methyl)propan-1-amine]
8.1	2.4	9.5	1.9	1.2	3.1	Cc1cccc(C)c1OCCCNCc1cccc(F)c1 [Compound 552, 3-(2,6-Dimethylphenoxy)-N-(3-fluorobenzyl)propan-1-amine]
1.8	0.5	3.3	2.9	2	5.2	Cc1cccc(C)c1OCCCNCc1ccccc1 [Compound 518, N-Benzyl-3-(2,6-dimethylphenoxy)propan-1-amine]
7.1	2.1	> 10	4.1	2.3	8.1	Cc1cccc(C)c1OCCCNCc1ccccc1C(F)(F)F [Compound 534, 3-(2,6-Dimethylphenoxy)-N-(2-(trifluoromethyl)benzyl)propan-1-amine]
0.6	0.2	1.2	0.4	0.3	0.4	Cc1cccc(C)c1OCCCNCc1cccc(-c2cncnc2)c1 [Compound 558, 3-(2,6-Dimethylphenoxy)-N-(3-(pyrimidin-5-yl)benzyl)propan-1-amine]
1.5	0.4	4.8	3.2	1.8	7.9	COc1cccc(CNCCCOc2c(C)cccc2C)c1 [Compound 525, 3-(2,6-Dimethylphenoxy)-N-(3-methoxybenzyl)propan-1-amine]
5.1	2.2	> 10	4.8	2.2	> 10	Cc1cccc(C)c1OCCCNCc1ccc(O)cc1 [Compound 550, 4-((3-(2,6-Dimethylphenoxy)propylamino)methyl)phenol]
2.3	1.2	23.5	142	80.5	287	Cc1cccc(C)c1OCCCNCc1nn(Cc2ccccc2)c2ccccc12 [Compound 540, N-((1-Benzyl-1H-indazol-3-yl)methyl)-3-(2,6-dimethylphenoxy)propan-1-amine]
3.6	1.4	12.5	56.3	40.9	138	Cc1cccc(C)c1OCCCNCc1ccc(OC(F)(F)F)cc1 [Compound 531, 3-(2,6-Dimethylphenoxy)-N-(4-(trifluoromethoxy)benzyl)propan-1-amine]
1.7	0.4	> 30	3.7	1.3	21.4	Cc1cccc(C)c1OCCCNCc1ccccc1-c1ccccc1 [Compound 536, N-(Biphenyl-2-ylmethyl)-3-(2,6-dimethylphenoxy)propan-1-amine]
6.1	2	~10.1	4.3	2.3	7.1	3-(2,6-Dimethylphenoxy)-N-(3-(trifluoromethyl)benzyl)propan-1-amine [Compound 533]
